Measured values taken from patent publication US20230121313A1 (priority 2019, published 2023).

What was measured:
[1] = tested on: subjects with MDD at imminent risk for suicide; experiment: Beck Scale for Suicidal Ideation (BSS), Study […]2001; assay type: in vivo, human; conditions: 84 mg; for BSS total score change, Diff. of LS Means (minus Placebo): ANCOVA LOCF; for BSS total score, change from baseline, mean / BSS total score, change from baseline, median / BSS total score, mean / BSS total score, median: LOCF, N 34
Excerpt: (§1) • a. Changes from baseline to Day 2 and Day 25 for the MADRS total score • b. Changes from baseline to Day 1 4-hours postdose, Day 2 and Day 25 for the MADRS Suicide Item • c. Changes from baseline to Day 1 4-hours postdose, Day 2, and Day 25 for the clinical global judgment of suicide risk from the Suicide Ideation and Behavior Assessment Tool (SIBAT) • d. Sustained response (Onset of Clinical Response) defined as at least 50% reduction from baseline in MADRS total score with onset on Day 1 that is maintained through the end of the double-blind phase (Day 25) • e. Changes from baseline to Day 1 4-hours postdose, Day 2, and Day 25 for the Beck Scale for Suicidal Ideation (BSS) • f. Changes from baseline to Day 1 4-hours postdose and Day 25 for the Beck Hopelessness Scale
The BSS is a 21-item self-reported instrument to detect and measure the severity of suicidal ideation in adults and adolescents aged 17 years and older. The BSS total score represents the severity of suicide ideation, and it is calculated by summing the ratings of the first 19 items; the total score ranges from 0 to 38, with a higher score representing greater suicide ideation. Increasing scores reflect increases in suicidal risk.

[2] = tested on: subjects with MDD at imminent risk for suicide; experiment: Beck Hopelessness Scale (BHS), Study […]2001; assay type: in vivo, human; conditions: 84 mg; for BHS total score change, Diff. of LS Means (minus Placebo): ANCOVA LOCF; for BHS total score, change from baseline, mean / BHS total score, change from baseline, median / BHS total score, mean / BHS total score, median: LOCF, N 35
Excerpt: as §1
The BHS is a self-reported measure to assess one's level of negative expectations or pessimism regarding the future. It consists of 20 true-false items that examine the respondent's attitude over the past week by either endorsing a pessimistic statement or denying an optimistic statement. For every statement, each response is assigned a score of 0 or 1. The total BHS score is a sum of item responses and ranges from 0 to 20, with a higher score representing a higher level of hopelessness.

subjects with TRD = conditions: human, in vivo, other: intranasal
Procedure: Transient blood pressure increases peaked for the esketamine group at approximately 40 minutes post dose and returned closer to predose levels by 1.5 hours post dose.

[3] = tested on: patients with treatment-resistant depression (TRD); experiment: BPRS positive symptom subscale, phase 2 dose-response study in TRD; assay type: in vivo, human
Procedure: Adverse events were monitored throughout the study. Other safety assessments (i.e., laboratory tests, vital signs, physical examination) were performed at pre-specified time points. Vital signs, the Clinician Administered Dissociative States Scale (CADSS; Bremner, “Measurement of dissociative states with the clinician-administered dissociative states scale (CADSS)”, J. Traumatic Stress, 1998, 11(1):125-136), and the 4-item positive symptom subscale from the Brief Psychiatric Rating Scale (BPRS; Overall, “The Brief Psychiatric Rating Scale. Psychological Reports”, 1962, 10:799-812) were assessed pre-dose, at 40 minutes, and 2 hours post-dose.

[4] = Pharmacokinetics of esketamine nasal spray, data assembled from 14 Phase 1 studies (Example 10); conditions: human, plasma, inhaled or intranasal
Procedure: The data herein was assembled from 14 Phase 1 studies; each Phase 1 study was performed similarly to the study outlined in Example 9 in which the PK of esketamine was assessed.

adult subjects with TRD = conditions: human, in vivo, other: intranasal
Procedure: The CADSS is an instrument for the measurement of present-state dissociative symptoms, and was administered to assess treatment-emergent dissociative symptoms. The CADSS consists of 23 subjective items, divided into 3 components: Depersonalization (Items 3 to 7, 20, and 23), derealization (Items 1, 2, 8 to 13, 16 to 19, and 21) and amnesia (Items 14, 15, and 22). Participant's responses were coded on a 5-point scale (0=not at all through to 4=extremely).
The Clinician Administered Dissociative States Scale (CADSS) was measured prior to the start of each dose, at 40 minutes, and 1.5 hours postdose.

[5] = tested on: subjects with MDD at imminent risk for suicide; conditions: human, in vivo, other: intranasal, 84 mg
Procedure: The CADSS was measured prior to the start of each dose, at 40 minutes, 2 hours, and 4 hours postdose.

## CN[C@]1(c2ccccc2Cl)CCCCC1=O [esketamine, (S)-2-(2-chlorophenyl)-2-(methylamino)cyclohexanone]
[1]; Day 1 (DB): 4 H
  BSS total score change, Diff. of LS Means (minus Placebo): −2.3
  BSS total score, change from baseline, mean: −10.2
  BSS total score, change from baseline, median: −8.0
  BSS total score, mean: 13.8
  BSS total score, median: 16.5
[1]; Day 2 (DB)
  BSS total score change, Diff. of LS Means (minus Placebo): −1.9
  BSS total score, change from baseline, mean: −12.9
  BSS total score, change from baseline, median: −11.5
  BSS total score, mean: 11.1
  BSS total score, median: 13.0
[1]; End Point (DB)
  BSS total score change, Diff. of LS Means (minus Placebo): −1.7
  BSS total score, change from baseline, mean: −19.3
  BSS total score, change from baseline, median: −21.0
  BSS total score, mean: 4.7
  BSS total score, median: 0.0
[1]; […]2001, Day 1: 4 hours postdose, Day 2 (DB), End Point (DB)
  BSS total score change vs placebo: no statistically significant differences
[2]; Day 1 (DB): 4 H
  BHS total score change, Diff. of LS Means (minus Placebo): −1.5
  BHS total score, change from baseline, mean: −4.1
  BHS total score, change from baseline, median: −2.0
  BHS total score, mean: 12.3
  BHS total score, median: 14.0
[2]; End Point (DB)
  BHS total score change, Diff. of LS Means (minus Placebo): −2.3
  BHS total score, change from baseline, mean: −10.3
  BHS total score, change from baseline, median: −11.0
  BHS total score, mean: 6.2
  BHS total score, median: 4.0
Subjects with TRD
  Blood pressure returned closer to predose levels by (post dose): ≤ 1.5 h
  Transient blood pressure increases: time of peak post dose: approximately 40 minutes
[3]
  Symptoms suggestive of psychosis (BPRS-positive assessment): No participant manifested symptoms suggestive of psychosis
[4]; 28 mg
  AUC(0-t): 128 to 183 ng·h/mL
  Cmax: 49.7 to 70.5 ng/mL
[4]; 28 mg, Terminal t1/2, young adult subjects, single dose nasal spray 28 mg, range across studies
  half-life: 435 to 990 min
[4]; 28 mg, Tmax, young adult subjects, single dose nasal spray 28 mg, range of median values
  Tmax: 19.8 to 40.2 min
[4]; 28 mg, tmax typically observed after the first nasal spray, 28 mg
  Tmax: 20 to 40 min
[4]; 56 mg
  AUC(0-t): 216 to 317 ng·h/mL
  Cmax: 71.8 to 117 ng/mL
[4]; 56 mg, Terminal t1/2, young adult subjects, single dose nasal spray 56 mg, range across studies
  half-life: 408 to 590 min
[4]; 56 mg, Tmax, young adult subjects, single dose nasal spray 56 mg, range of median values
  Tmax: 30 to 46.2 min
[4]; 56 mg, tmax typically observed after the first nasal spray, 56 mg
  Tmax: 30 to 45 min
[4]; 84 mg
  AUC(0-t): 310 to 489 ng·h/mL
  Cmax: 95 to 164 ng/mL
[4]; 84 mg, Terminal t1/2, young adult subjects, single dose nasal spray 84 mg, range across studies
  half-life: 396 to 720 min
[4]; 84 mg, Tmax, young adult subjects, single dose nasal spray 84 mg, range of median values
  Tmax: 31.8 to 49.8 min
[4]; 84 mg, tmax typically observed after the first nasal spray, 84 mg
  Tmax: 30 to 50 min
[4]; Mean terminal t1/2, range, nasal administration
  half-life: 420 to 720 min
[4]; Median terminal t1/2, nasal administration
  half-life: 642 min
Adult subjects with TRD
  CADSS dissociative and perceptual change symptoms resolved by (postdose): ≤ 1.5 h
[5]
  CADSS dissociative and perceptual change symptoms resolved by (postdose): ≤ 2 h
